Measurements reported in patent US5229395A, “Potential anticancer agents derived from acridine” (Sloan-Kettering Institute For Cancer Research, priority 1991, dated 1993).

tested on: topoisomerse II; test: not given; settings: Nelson et al. 1984; Pommier et al. 1984; cited from earlier work

SMILES | DNA cleavage mediated by topoisomerse II
COc1cc(NS(C)(=O)=O)ccc1Nc1c2ccccc2nc2ccccc12 [amsacrin] | appears to induce DNA cleavage

tested on: DNA; test: not given; settings: Denny and Wakelin, Cancer Res., 46:1717 (1986); cited from earlier work

SMILES | intercalation into DNA
COc1cc(NS(C)(=O)=O)ccc1Nc1c2ccccc2nc2ccccc12 [amsacrin] | reversible

tested on: mouse leukemic cells L1210; test: not given; settings: earlier work, U.S. Pat. No. 4,966,918; cited from earlier work

SMILES | activity against mouse leukemic cells L1210 in tissue culture
Cc1cc(O)c2c(c1)C(=O)c1cc(O)cc(O)c1C2=O [Compound 1B, emodin] | practically inactive
Cc1cc(O)c2c(c1)C(=O)c1cccc(O)c1C2=O [Compound 1A, chrysophanol] | practically inactive
COc1cc(O)c2c(c1)C(=O)c1cc(CN(CCCl)CCCl)cc(O)c1C2=O [Compound 3B] | potent inhibitory activity
O=C1c2cccc(O)c2C(=O)c2c(O)cc(CN(CCCl)CCCl)cc21 [Compound 3A, 3-[N,N-bis(2-chloroethyl)-amino]methyl-1,8-dihydroxy-9,10-anthraquinone] | potent inhibitory activity

tested on: mouse leukemia L1210 cells; test: Inhibitory activity against growth of mouse leukemia L1210 cells in vitro; type: cell-based; settings: Mus musculus, L1210; quoted in text from Table 6; read-out: IC50 value

SMILES | IC50 [nM]
OCc1ccc(Nc2c3ccccc3nc3ccccc23)cc1 [IIIc, 9-(4'-Hydroxymethyl)anilinoacridine] | 95

same assay, conditions: Table 6, acridine derivatives of formula III, growth of mouse leukemia L1210 cells; read-out: IC50

SMILES | IC50 [nM]
OCCc1cccc(Nc2c3ccccc3nc3ccccc23)c1 [IIIe] | 6.2
Cc1ccc2nc3ccccc3c(Nc3ccc(CO)cc3)c2c1 [IIIo, 9-(4'-Hydroxymethyl)anilino-2-methylacridine] | 120
OCc1cccc(Nc2c3ccccc3nc3ccccc23)c1 [IIIb, 9-(3'-Hydroxymethyl)anilinoacridine] | 14
Cc1ccc2c(Nc3cccc(CO)c3)c3ccccc3nc2c1 [IIIh, 9-(3'-Hydroxymethyl)anilino-3-methylacridine] | 0.39
COc1ccc2nc3ccccc3c(Nc3cccc(CO)c3)c2c1 [IIIi, 9-(3'-Hydroxymethyl)anilino-2-methoxyacridine] | 3500
COc1ccc2c(Nc3cccc(CCO)c3)c3ccccc3nc2c1 [IIIn, 9-[3'-(β-hydroxyethyl)anilino]-3-methoxyacridine] | 0.023
COc1ccc2nc3ccc(OC)cc3c(Nc3cccc(CO)c3)c2c1 [IIIm, 9-(3'-Hydroxymethyl)anilino-2,7-dimethoxyacridine] | 3400
COc1ccc2c(Nc3ccc(CO)cc3)c3ccccc3nc2c1 [IIIr, 9-(4'-Hydroxymethyl)anilino-3-methoxyacridine] | 29
Cc1ccc2c(Nc3ccc(CO)cc3)c3ccccc3nc2c1 [IIIp, 9-(4'-Hydroxymethyl)anilino-3-methylacridine] | 6.7
COc1ccc2nc3ccc(C)cc3c(Nc3cccc(CO)c3)c2c1 [IIIk, 9-(3'-Hydroxymethyl)anilino-2-methoxy-7-methylacridine] | 5800
COc1ccc2nc3ccc(OC)cc3c(Nc3ccc(CCO)cc3)c2c1 [IIIw] | 690
COc1ccc2nc3cc(C)ccc3c(Nc3ccc(CO)cc3)c2c1 [IIIt, 9-(4'-Hydroxymethyl)anilino-2-methoxy-6-methylacridine] | 650
OCc1ccc(Nc2c3ccccc3nc3ccccc23)cc1 [IIIc, 9-(4'-Hydroxymethyl)anilinoacridine] | 95
COc1ccc2nc3ccc(C)cc3c(Nc3ccc(CO)cc3)c2c1 [IIIs, 9-(4'-Hydroxymethyl)anilino-2-methoxy-7-methylacridine] | 58
OCc1ccccc1Nc1c2ccccc2nc2ccccc12 [IIIa, 9-(2'-Hydroxymethyl)anilinoacridine] | 43000
COc1ccc2nc3ccc(OC)cc3c(Nc3ccc(CO)cc3)c2c1 [IIIu, 9-(4'-Hydroxymethyl)anilino-2,7-dimethoxyacridine] | 3400
COc1ccc2nc3ccccc3c(Nc3ccc(CO)cc3)c2c1 [IIIq, 9-(4'-Hydroxymethyl)anilino-2-methoxyacridine] | 620
OCCc1ccc(Nc2c3ccccc3nc3ccccc23)cc1 [IIIf] | 9.9
COc1ccc2c(Nc3cccc(CO)c3)c3ccccc3nc2c1 [IIIj, 9-(3'-Hydroxymethyl)anilino-3-methoxyacridine] | 0.063
COc1ccc2nc3cc(C)ccc3c(Nc3cccc(CO)c3)c2c1 [IIIl, 9-(3'-Hydroxymethyl)anilino-2-methoxy-6-methylacridine] | 920
OCCc1ccccc1Nc1c2ccccc2nc2ccccc12 [IIId] | 6500
Cc1ccc2nc3ccccc3c(Nc3cccc(CO)c3)c2c1 [IIIg, 9-(3'-Hydroxymethyl)anilino-2-methylacridine] | 850
COc1ccc2c(Nc3ccc(CCO)cc3)c3ccccc3nc2c1 [IIIv] | 18

same assay, conditions: Table 7, carbamate esters of formula IV, mouse L1210 cells in vitro; read-out: IC50

SMILES | IC50 [nM]
CNC(=O)OCc1ccc(Nc2c3cc(OC)ccc3nc3ccc(OC)cc23)cc1 [IVo, 9-[4'-(Methylaminocarbonyloxymethyl)anilino]-2,7-dimethoxyacridine] | 3600
CNC(=O)OCc1ccccc1Nc1c2ccccc2nc2ccccc12 [IVa, 9-[2'-(Methylaminocarbonyloxymethyl)anilino]acridine] | 8400
CNC(=O)OCCc1ccc(Nc2c3ccccc3nc3ccccc23)cc1 [IVi, 9-[4'-(β-Methylaminocarbonyloxyethyl)anilino]acridine] | 3.9
CNC(=O)OCc1cccc(Nc2c3ccccc3nc3cc(OC)ccc23)c1 [IVk, 9-[3'-(Methylaminocarbonyloxymethyl)anilino]-3-methoxyacridine] | 1700
CNC(=O)OCc1ccc(Nc2c3ccccc3nc3ccccc23)cc1 [IVe, 9-[4'-(Methylaminocarbonyloxymethyl)anilino]acridine] | 38
COc1ccc2c(Nc3cccc(COC(=O)NC(C)C)c3)c3ccccc3nc2c1 [IVl, 9-[3'-(Isopropylaminocarbonyloxymethyl)anilino]-3-methoxyacridine] | 890
CC(C)NC(=O)OCc1cccc(Nc2c3ccccc3nc3ccccc23)c1 [IVd, 9-[3'-(Isopropylaminocarbonyloxymethyl)anilino]acridine] | 9.1
CNC(=O)OCCc1cccc(Nc2c3ccccc3nc3ccccc23)c1 [IVg, 9-[3'-(β-Methylaminocarbonyloxyethyl)anilino]acridine] | 5700
COc1ccc2nc3ccc(OC)cc3c(Nc3cccc(COC(=O)NC(C)C)c3)c2c1 [IVn, 9-[3'-(isopropylaminocarbonyloxymethyl)-anilino]-2,7-dimethoxyacridine] | 4000
CC(C)NC(=O)OCCc1ccc(Nc2c3ccccc3nc3ccccc23)cc1 [IVj, 9-[4'-(β-Isopropylaminocarbonyloxyethyl)anilino]acridine] | 48
CNC(=O)OCc1cccc(Nc2c3ccccc3nc3ccccc23)c1 [IVc, 9-[3'-(Methylaminocarbonyloxymethyl)anilino]acridine] | 4600
COc1ccc2nc3ccc(OC)cc3c(Nc3ccc(COC(=O)NC(C)C)cc3)c2c1 [IVp, 9-[4'-(Isopropylaminocarbonyloxymethyl)anilino]-2,7-dimethoxyacridine] | 6600
CC(C)NC(=O)OCCc1cccc(Nc2c3ccccc3nc3ccccc23)c1 [IVh, 9-[3'-(β-Isopropylaminocarbonyloxyethyl)anilino]acridine] | 0.91
CC(C)NC(=O)OCc1ccccc1Nc1c2ccccc2nc2ccccc12 [IVb, 9-[2'-(Isopropylaminocarbonyloxymethyl)anilino]acridine] | 9300
CC(C)NC(=O)OCc1ccc(Nc2c3ccccc3nc3ccccc23)cc1 [IVf, 9-[4'-(Isopropylaminocarbonyloxymethyl)anilino]acridine] | 18
CNC(=O)OCc1cccc(Nc2c3cc(OC)ccc3nc3ccc(OC)cc23)c1 [IVm, 9-[3'-(Methylaminocarbonyloxymethyl)anilino]-2,7-dimethoxyacridine] | 5000

tested on: L1210 cells; test: In vivo antileukemic effect (increased life span) in female BDF1 mice inoculated with L1210 cells; settings: 100 mg/kg; mice inoculated with 1.0×10^6 L1210 cells
Procedure: On the other hand, the corresponding methyl carbamate ester IVc gave good ILS values of 71% and >250% at the dose levels of 100 and 200 mg/kg, respectively.

SMILES | ILS (increased life span) [%]
CNC(=O)OCc1cccc(Nc2c3ccccc3nc3ccccc23)c1 [IVc, 9-[3'-(Methylaminocarbonyloxymethyl)anilino]acridine] | 71

same assay, conditions: 200 mg/kg; mice inoculated with 1.0×10^6 L1210 cells

SMILES | ILS (increased life span) [%]
CNC(=O)OCc1cccc(Nc2c3ccccc3nc3ccccc23)c1 [IVc, 9-[3'-(Methylaminocarbonyloxymethyl)anilino]acridine] | > 250

same assay, conditions: 100 and 150 mg/kg dose level; female BDF1 mice inoculated with 1.0×10^6 L1210 cells

SMILES | ILS (increased life span) [%]
OCc1ccc(Nc2c3ccccc3nc3ccccc23)cc1 [IIIc, 9-(4'-Hydroxymethyl)anilinoacridine] | 29
